{
  "source": "patent US9801874B2",
  "about": "“Method for the preparation of liposome encapsulated vincristine for therapeutic use” (Spectrum Pharmaceuticals, Inc., priority 2012, dated 2017)",
  "origin": "cited, not measured here",
  "conditions": "1:1 sulfate salt, crystalline powder",
  "note": "Counter-ions that a name gives are not always drawn.",
  "data": [
    {"smiles": "CCC12C=CCN3CC[C@@]4(c5cc([C@@]6(C(=O)OC)CC7CN(CCc8c6[nH]c6ccccc86)C[C@](O)(CC)C7)c(OC)cc5N(C=O)[C@H]4[C@@](O)(C(=O)OC)C1OC(C)=O)C32", "note": "(stereo partly shown) [Vincristine sulfate, 22-oxovincaleukoblastine]", "values": [
      {"measurement": "solubility in water", "result": "soluble in water"}
    ]}
  ]
}
